Reference: patent US20260345555A1, “Compositions and Methods for Protecting Salivary Glands from Off-Target Radiation Damage” (University of Rochester, priority 2022, published 2026)

Assays:
[1] = system: γH2AX foci per nucleus in mouse submandibular gland; experiment: In vivo radioprotection of mouse salivary gland: γH2AX foci per nucleus (IHC) 48 hours after 15 Gy, retroductal injection
Protocol: Female SKH1 hairless mice, backcrossed 6 generations with C57BL/6J mice, aged 6-12 weeks were used in this study for in vitro assay development and drug discovery. Female C57BL/6J mice age 6-8 weeks were used for in vivo validation studies. […] Animals were maintained on a 12 hr light/dark cycle and group-housed with food and water available ad libitum.
Briefly, 6-10 week old female C57Bl/6 J mice were anesthetized by intraperitoneal injection of sterile saline solution of 100 mg/kg ketamine and 10 mg/kg xylazine. Maxillary incisors were secured over a metal beam, while an elastic band provided tension from behind the mandibular incisors. The mouth was widened using a custom steel retractor to apply pressure to the buccal mucosa and the tongue was retracted and cotton placed in the oral cavity. The wire inset of a 32 G intracranial catheter was cut at […] to create a bevel. The beveled wire created a shallow puncture in the left salivary papilla. A beveled catheter section containing the wire insert for support was gently inserted into the puncture site. The catheter was removed, and 1 mg/kg atropine was administered by intraperitoneal injection. After 10 min, the needle of a Hamilton syringe, loaded with vehicle or drug solution, was inserted into the catheter, and the catheter was inserted into the orifice produced in the papilla. Drug solutions were injected by hand at 10 μl/min at a volume of 1 μl/g of body weight. Following injection, the pressure was maintained on the syringe for 1 min to ensure material retention before removal of the catheter.
The head and neck region was positioned over the slit of a custom collimator, which allowed body shielding.
Submandibular glands and SGm were isolated and fixed in 4% paraformaldehyde overnight at 4 °C. Tissues were paraffin-embedded and then cut into […] sections. […] Permeabilization was performed with 0.5% Triton X-100 in PBS for 5 minutes. […] Following a PBS rinse, […] DAPI (Invitrogen, Carlsbad, CA) in PBS was applied to sections for 5 minutes. Sections were washed thrice in PBS for 5 minutes and the slides were mounted using Immu-Mount mounting medium (Thermo). Microscopic images were acquired using a Leica TCS SP5 confocal microscope with a 100× oil immersion objective and Argon laser. Analysis of images was performed in ImageJ.

[2] = system: Reduced glutathione in salivary gland cell clusters (SGm); experiment: Glutathione assay in salivary gland tissue chip, 4 days post-radiation (15 Gy); also first screen of Selleck library at 100 μM; format: cell-based, mouse; settings: for Estimated EC50, Glutathione: nonlinear fit in Prism of dose response curves; for prevention of radiation-induced reduction of glutathione levels: 4 days post-radiation; as to Glutathione (radioprotection): key: +: radioprotection; ~: partial radioprotection; —: no radioprotection
How it was run: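 Mouse submandibular gland cell clusters (20–100 μm) in PEG hydrogel on microbubble chips, cultured 4 days to form SGm, then dosed 30 min before and during 15 Gy irradiation and washed out 30 min after. Glutathione measured 4 days post-radiation; library compounds screened at 100 μM, hits matching 0 Gy levels.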

[3] = phenylbutazone 50 mg/kg, corn oil

`CCCCC1C(=O)N(c2ccccc2)N(c2ccccc2)C1=O` [Phenylbutazone] was tested, and the “reduction in γH2AX foci per nucleus compared to 15 Gy controls” value (“reduction in γH2AX foci per nucleus” below) [1, 3] was 0.4 fold, the “γH2AX foci per nucleus versus 0 Gy controls” value [1, 3] was “not significantly different from 0 Gy controls” and the “concentration range of radioprotection, glutathione assay” value ([2]; dose response, 15 Gy) was 0.1 to 100 µM. For the same compound, the “Estimated EC50, Glutathione” value ([2]; 15 Gy) was 80 nM.
In the case of `CCn1cc(C(=O)O)c(=O)c2cc(F)c(N3CCNCC3)nc21` [Enoxacin (Penetrex)], the “reduction in γH2AX foci per nucleus” value ([1]; enoxacin 0.3 mg/kg) is reported as 0.5 fold, the “increase in γH2AX foci per nucleus” value ([1]; enoxacin 0.3 mg/kg, comparator not given) is reported as 1.6 fold and the “radioprotection in dose response, glutathione assay” value ([2]; dose response, 15 Gy) is reported as “protection only at higher concentrations”. For the same compound, the “Estimated EC50, Glutathione” value ([2]; 15 Gy) was 2400 nM.
`NCCCNCCS` [WR-1065] was tested, and the “reduction in γH2AX foci per nucleus” value ([1]; WR-1065 50 mg/kg) was 0.5 fold, the “γH2AX foci per nucleus versus 0 Gy controls” value ([1]; WR-1065 50 mg/kg) was “No significant differences” and the “prevention of radiation-induced reduction of glutathione levels” value ([2]; 0.1 mM, 15 Gy) was “ineffective”. For the same compound, the “prevention of radiation-induced reduction of glutathione levels” value ([2]; 0.4 mM, 15 Gy) was “ineffective”, the “Glutathione (radioprotection)” value ([2]; 1 mM) was “+” and the “prevention of radiation-induced reduction of glutathione levels” value ([2]; 1 mM, 15 Gy) was “significant protection”. The “Glutathione (radioprotection)” value ([2]; 4 mM) was “+” and the “prevention of radiation-induced reduction of glutathione levels” value ([2]; 4 mM, 15 Gy) was “significant protection”.
With Doripenem hydrate the “increase in γH2AX foci per nucleus compared to 0 Gy controls” value ([1]; doripenem hydrate 26 mg/kg) was 2.7 fold, the “reduction of γH2AX foci per nucleus relative to 15 Gy controls” value ([1]; doripenem hydrate 26 mg/kg) was “did not reduce” and the “radioprotection in dose response, glutathione assay” value ([2]; dose response, 15 Gy) was “protection only at higher concentrations”. For the same compound, the “Estimated EC50, Glutathione” value ([2]; 15 Gy) was 8600 nM.
